Experimental data as given in patent US10786476B2, “Combination therapy” (IMBRIA PHARMACEUTICALS, INC., priority 2016, dated 2020).
“Also recorded” adds a separate entry of the source. Read-outs that look alike come from different tables or passages of the source.

Experiment: Viscosity / flow property test (flow out of a vial, be swirled, direct drinking)
Assay type: physicochemical
Description: Properties of provided compounds and compositions can be readily tested, including using a number of methods widely known and practiced in the art, in accordance with the present disclosure. For example, viscosity and/or taste of provided compounds can be readily tested. In some embodiments, viscosity was assessed by testing whether a provided compound could readily flow out of a vial or be swirled. In some embodiments, viscosity was assessed by testing whether a provided compound could be administered by direct drinking by a subject. In some embodiments, taste was assessed by testing whether a provided compound could be administered by direct drinking by a subject.

Compound	flow property for formulation	viscosity compared with glycerol (at room temperature)	viscosity compared with glycerol (temperature not stated)	flow property for formulation (listed as 1-29)
CCCCCCCC(=O)OCC(COC(=O)CCC(=O)OCC(COC(=O)CCCCCCC)OC(=O)CCCCCCC)OC(=O)CCCCCCC (stereo not shown) [Compound I-30, bis (2,3-bis(octanoyloxy)propyl) succinate]	surprisingly good; also recorded: good flow property for formulation	lower viscosity than glycerol	lower viscosity than glycerol	–
CCCC(=O)OCC(COC(=O)CCC(=O)OCC(COC(=O)CCC)OC(=O)CCC)OC(=O)CCC (stereo not shown) [Compound I-29, succinate diglycerol tetra-butyric acid]	surprisingly good	lower viscosity than glycerol	lower viscosity than glycerol	good flow property for formulation
